The text below walks through data of the supplement of paper PMC12317010.

Where a name gives a salt, the structure may show the parent alone.

A short description of this data set: collision cross section in nitrogen (drift tube, single-field); higher = larger gas-phase ion size.
Setting [1] is: ion type: [M+H], ion source: APCI, ion mode: Positive.
The mark [2] stands for this setting: ion type: [M+H], ion source: ESI, ion mode: Positive.
Setting [3] is: ion type: [M+Na], ion source: ESI, ion mode: Positive.
Setting [4] is: ion type: [M-H], ion source: ESI, ion mode: Negative.
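Further: chemical standards at 10 µM analysed by drift tube IMS-QTOF MS in about 3.95 torr nitrogen, mean of duplicate injections differing ≤1%, mass error below 10 ppm.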

For `COc1ccccc1NC(=O)c1cc2ccccc2cc1O` [3-Hydroxy-2-naphthoic o-anisidide], the “collision cross section in nitrogen” value is, setting by setting: under setting [1], 167.3 Å²; under setting [2], 167.5 Å²; under setting [3], 181.8 Å²; under setting [4], 168.9 Å².

Take `Cc1cc(Cl)ccc1N=CN(C)C` [Chlordimeform hydrochloride]: the “collision cross section in nitrogen” value under setting [1] is 146.2 Å².

On to `O=C(O)c1cc(N=Nc2ccc(S(=O)(=O)Nc3ccccn3)cc2)ccc1O` [Sulfasalazine], for which the “collision cross section in nitrogen” value under setting [1] amounted to 203.9 Å², the “collision cross section in nitrogen” value under setting [2] is listed as 203.6 Å² and the “collision cross section in nitrogen” value under setting [4] stood at 197.5 Å².

For the compound `CCCCC(O)(Cn1cncn1)c1ccc(Cl)cc1Cl` (configuration not stated) [Hexaconazole], the “collision cross section in nitrogen” value under setting [1] amounted to 174.6 Å², the “collision cross section in nitrogen” value under setting [2] is 173.5 Å² and the “collision cross section in nitrogen” value under setting [3] is reported as 187 Å².

As for `CCOc1nc(NC)nc(NC(=O)NS(=O)(=O)c2ccccc2C(=O)OC)n1` [Ethametsulfuron-methyl], the “collision cross section in nitrogen” value by setting is: under setting [2], 197.6 Å²; under setting [4], 196 Å².

Regarding `CON(C)C(=O)Nc1ccc(Br)c(Cl)c1` [Chlorbromuron], the “collision cross section in nitrogen” value under setting [4] worked out at 152.8 Å².

`CCCCC(CC)C(=O)OC(C)C` (configuration not stated) [Propan-2-yl 2-ethylhexanoate]: under setting [4], the “collision cross section in nitrogen” value worked out at 151.3 Å².

As to `O=C1CCCC(=O)C1` [1,3-Cyclohexanedione], the “collision cross section in nitrogen” value was 122.6 Å² under setting [2] and 121.3 Å² under setting [4].

In the case of `Cc1[nH]cnc1C[C@H]1CCc2c(C)c3ccccc3n2C1=O` [Fabesetron hydrochloride], the “collision cross section in nitrogen” value runs as follows: under setting [1], 175.1 Å²; under setting [2], 174.8 Å².

With `Oc1ccc(Cl)cc1Cc1cc(Cl)ccc1O` [Dichlorophen], the “collision cross section in nitrogen” value under setting [4] was found to be 155.8 Å².

With `CNC(=O)C(c1ccccc1)c1ccccc1` [N-methyl-alpha-phenylbenzeneacetamide], the “collision cross section in nitrogen” value is recorded as 153.4 Å² under setting [1], 152.9 Å² under setting [2] and 162.2 Å² under setting [3].

In the case of `CC(=O)CC(=O)Nc1ccccc1` [Acetoacetanilide], under setting [4], the “collision cross section in nitrogen” value was found to be 138 Å².

Turning to `CCCCC(CC)CCC(CC(C)C)OS(=O)(=O)O` (configuration not stated) [7-Ethyl-2-methyl-4-undecanolsulfate, sodium salt], the “collision cross section in nitrogen” value under setting [4] amounted to 175.2 Å².

Regarding `N#Cc1ccc(C2CCCc3cncn32)cc1` (configuration not stated) [Fadrozole], the “collision cross section in nitrogen” value under setting [2] was 157.3 Å².

As for `CC(=O)CC(c1ccccc1)c1c(O)c2ccccc2oc1=O` (configuration not stated) [Sodium warfarin], the “collision cross section in nitrogen” value under setting [1] amounted to 167.1 Å², the “collision cross section in nitrogen” value under setting [2] is 167 Å², the “collision cross section in nitrogen” value under setting [3] is 178.6 Å² and the “collision cross section in nitrogen” value under setting [4] came out at 172.5 Å².

Regarding `CC(C)(c1ccc(OCC2CO2)cc1)c1ccc(OCC2CO2)cc1` (configuration not stated) [Bisphenol A diglycidyl ether], under setting [3], the “collision cross section in nitrogen” value is recorded as 176.7 Å².

For `CCCCCCCC/C=C\CCCCCCCCN` [(Z)-9-Octadecenylamine], under setting [2], the “collision cross section in nitrogen” value is recorded as 180.2 Å².

`CCOc1ccc(C(C)(C)COCc2cccc(Oc3ccccc3)c2)cc1` [Etofenprox]: under setting [3], the “collision cross section in nitrogen” value is given as 191 Å².

Take `CCn1cc(C(=O)O)c(=O)c2cc3c(cc21)OCO3` [Oxolinic acid]: the “collision cross section in nitrogen” value by setting is: under setting [1], 152.6 Å²; under setting [2], 152.3 Å²; under setting [3], 165 Å².

With `Nc1c(Cl)c(Cl)c(Cl)c(Cl)c1Cl` [Pentachloroaniline], the “collision cross section in nitrogen” value under setting [4] was 138.4 Å².

For the compound `CCCCCCOc1ccc(N)cc1` [4-Hexyloxyaniline], the “collision cross section in nitrogen” value is, setting by setting: under setting [1], 168 Å²; under setting [2], 167.4 Å².

For the compound `COCC(=O)N(c1c(C)cccc1C)C(C)C(=O)OC` (configuration not stated) [Metalaxyl], the “collision cross section in nitrogen” value reads like this: under setting [1], 160.5 Å²; under setting [2], 160.8 Å²; under setting [3], 169.4 Å².

Regarding `CC(C)(c1ccccc1)c1ccc(O)cc1` [4-Cumylphenol], the “collision cross section in nitrogen” value under setting [4] is 157.8 Å².

Take `c1nc[nH]n1` [1H-1,2,4-Triazole]: under setting [4], the “collision cross section in nitrogen” value worked out at 107.7 Å².

For the compound `COc1cc(CNC(=O)CCCC/C=C/C(C)C)ccc1O` [Capsaicin], the “collision cross section in nitrogen” value reads like this: under setting [2], 182 Å²; under setting [3], 173 Å²; under setting [4], 177.8 Å².

In the case of `Cc1cc(C)c(C(=O)P(=O)(c2ccccc2)c2ccccc2)c(C)c1` [Diphenyl(2,4,6-trimethylbenzoyl)phosphine oxide], under setting [3], the “collision cross section in nitrogen” value came to 191.1 Å².

Regarding `COc1cccc(-c2ccc(/C=C\CN3CCCCCC3)cc2Cl)c1`, the “collision cross section in nitrogen” value under setting [1] is listed as 185.2 Å², the “collision cross section in nitrogen” value under setting [2] came out at 185.6 Å² and the “collision cross section in nitrogen” value under setting [3] stood at 196.9 Å².

Consider `CNC(=O)ON=CC(C)(C)SC` [Aldicarb], for which the “collision cross section in nitrogen” value under setting [3] was found to be 147.5 Å².

Regarding `CCCCCCc1ccc(N)cc1` [4-Hexylaniline], the “collision cross section in nitrogen” value reads like this: under setting [1], 162.8 Å²; under setting [2], 162.8 Å².

Turning to `Nc1nnc(-c2ccc([N+](=O)[O-])o2)o1` [2-Amino-5-(5-nitro-2-furyl)-1,3,4-oxadiazole], under setting [4], the “collision cross section in nitrogen” value was 135.3 Å².

Turning to `CCc1nc(C)c[nH]1` [2-Ethyl-4-methyl-1H-imidazole], the “collision cross section in nitrogen” value reads like this: under setting [1], 120.3 Å²; under setting [2], 121.2 Å².

Turning to `O=[N+]([O-])O` [Copper(II) nitrate trihydrate], under setting [4], the “collision cross section in nitrogen” value is on record as 104.1 Å².

Regarding `COc1cc(OC)c2ccc(=O)oc2c1` [5,7-Dimethoxy-2H-chromen-2-one], the “collision cross section in nitrogen” value under setting [1] stood at 139.1 Å² and the “collision cross section in nitrogen” value under setting [2] is listed as 139.6 Å².

On to `CC1(C)C(C(=O)OC(C#N)c2cccc(Oc3ccccc3)c2)C1(C)C` (configuration not stated) [Fenpropathrin], for which the “collision cross section in nitrogen” value under setting [3] turned out to be 186 Å².

As for `CC(C)c1c(C(=O)Nc2ccccc2)c(-c2ccccc2)c(-c2ccc(F)cc2)n1CC[C@@H](O)C[C@@H](O)CC(=O)O` [Atorvastatin], the “collision cross section in nitrogen” value was 229.1 Å² under setting [1], 229.7 Å² under setting [2], 231.4 Å² under setting [3] and 228.4 Å² under setting [4].

`C=C1C[C@]23C[C@@]1(O)CC[C@H]2[C@@]12C=C[C@H](O)[C@@](C)(C(=O)O1)[C@H]2[C@@H]3C(=O)O` [Gibberellic acid]: the “collision cross section in nitrogen” value under setting [4] is reported as 176.4 Å².

As for `CN(N=O)c1ccccc1` [N-Methyl-N-nitrosoaniline], the “collision cross section in nitrogen” value under setting [1] was determined as 124.5 Å² and the “collision cross section in nitrogen” value under setting [2] is listed as 125.1 Å².

With `O=S(=O)(O)c1ccc(N=Nc2cc(S(=O)(=O)O)c3ccccc3c2O)c2ccccc12` [Azorubine], the “collision cross section in nitrogen” value under setting [4] amounted to 211.8 Å².

For the compound `CCCOc1ccc(S(=O)(=O)N2CCN(CC)CC2)cc1-c1nc2c(CC)n(Cc3ccccn3)nc2c(=O)[nH]1`, the “collision cross section in nitrogen” value under setting [1] is listed as 237 Å², the “collision cross section in nitrogen” value under setting [2] came to 236.5 Å², the “collision cross section in nitrogen” value under setting [3] turned out to be 256.9 Å² and the “collision cross section in nitrogen” value under setting [4] worked out at 238.6 Å².

As to `CN(C)C(=O)Nc1ccc(Oc2ccc(Cl)cc2)cc1` [Chloroxuron], the “collision cross section in nitrogen” value under setting [1] is 175.3 Å², the “collision cross section in nitrogen” value under setting [2] is listed as 174.9 Å² and the “collision cross section in nitrogen” value under setting [3] is given as 183.1 Å².

For the compound `NS(=O)(=O)c1cc(C(=O)O)c(NCc2ccco2)cc1Cl` [Furosemide], the “collision cross section in nitrogen” value under setting [4] worked out at 173 Å².
